Measured values taken from US12459951B2, “Compounds that interact with RAS superfamily proteins for treatment of cancers, inflammatory diseases, rasopathies, and fibrotic disease” (SHY Therapeutics, LLC, priority 2022, dated 2025).

Columns and labels:
[1] = tested on: MiaPaca-2 (expressing KRAS G12C mutant); experiment: Proliferation Assay (Cell Viability Assay); format: cell-based; conditions: Homo sapiens, MIA PaCa-2; read-out: Proliferation in MiaPaca-2: IC50
Summary of the method: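 MiaPaca-2 cells (KRAS G12C) were grown in DMEM-high glucose with 10% FBS, seeded at 2000–5000 cells/well and cultured overnight. Compounds were added at 10 μM final, or as serial dilutions for IC50, in 0.3% DMSO/10% FBS for 2–4 days at 37 °C, 5% CO2. Viability was measured with CellTiter 96 Aqueous One and % inhibition calculated.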

IL6 = experiment: IL-6 Quantification Assay (ELISA), LPS-stimulated RAW 264.7; format: cell-based; design: inhibition: dose or concentration left out as unconfirmed; conditions: Mus musculus, RAW264.7; read-out: IL-6: % inh.
Akt phosphorylation = experiment: Akt Phosphorylation Assay (western blot), Panc-1; format: cell-based, human; conditions: at 10 μM, * = activation
Summary of the method: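 Panc-1 (KRas G12D) cells were treated with compound at 10 μM final (0.3% DMSO) for 6 h at 37 °C, or with serial dilutions for IC50. Cells were either serum-starved overnight in 0.5% FBS and then stimulated with 1.5 ng/ml EGF for 15 min, or kept in 10% FBS without stimulation. Akt Ser473 phosphorylation in lysates was read by western blot.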

CO[C@H]1C[C@@H](Nc2nc(-c3nccn3C)nn3cc(-c4ccncc4)c(-c4ccccc4)c23)C1 [Compound 198, N-((1s,3s)-3-Methoxycyclobutyl)-2-(1-methyl-1H-imidazol-2-yl)-5-phenyl-6-(pyridin-4-yl)pyrrolo[2,1-f][1,2,4]triazin-4-amine]
IC50 [1]: > 1000 nM
inhibition (IL6): 25 to 49%
% inh of Akt phosphorylation in Panc-1 (Akt phosphorylation): C (50-84% inhibition)

Cc1c(-c2ccn(C)n2)cn2nc(-c3nccn3C)nc(Nc3cc(OCCNC(=O)CCCC[C@H]4SC[C@H]5NC(=O)N[C@H]54)ccn3)c12 [Compound 186, N-(2-((2-((5-Methyl-2-(1-methyl-1H-imidazol-2-yl)-6-(1-methyl-1H-pyrazol-3-yl)pyrrolo[2,1-f][1,2,4]triazin-4-yl)amino)pyridin-4-yl)oxy)ethyl)-5-((3aR,4R,6aS)-2-oxohexahydro-1H-thieno[3,4-d]imidazol-4-yl)pentanamide]
IC50 [1]: > 1000 nM
inhibition (IL6): 1 to 24%
% inh of Akt phosphorylation in Panc-1 (Akt phosphorylation): A* (1-25% activation)

CO[C@H]1C[C@H](Nc2nc(-c3nccn3C)nn3cc(-c4ccccc4)c(-c4ccccc4)c23)C1 [Compound 203, N-((1r,3r)-3-Methoxycyclobutyl)-2-(1-methyl-1H-imidazol-2-yl)-5,6-diphenylpyrrolo[2,1-f][1,2,4]triazin-4-amine]
IC50 [1]: 510 to 1000 nM
inhibition (IL6): 75 to 100%
% inh of Akt phosphorylation in Panc-1 (Akt phosphorylation): D (85-100% inhibition)

Cc1c(-c2ccn(C)n2)cn2nc(-c3nccn3C)nc(Nc3cc(C(C)(C)O)ccn3)c12 [Compound 240, 2-(2-((5-Methyl-2-(1-methyl-1H-imidazol-2-yl)-6-(1-methyl-1H-pyrazol-3-yl)pyrrolo[2,1-f][1,2,4]triazin-4-yl)amino)pyridin-4-yl)propan-2-ol]
IC50 [1]: < 150 nM
inhibition (IL6): 50 to 74%
% inh of Akt phosphorylation in Panc-1 (Akt phosphorylation): D* (85-100% activation)

Cc1c(-c2ccn(C)n2)cn2nc(-c3nccn3C)nc(Nc3ccc(OC(F)F)cn3)c12 [Compound 231, N-(5-(Difluorometh-oxy)pyridin-2-yl)-5-methyl-2-(1-methyl-1H-imidazol-2-yl)-6-(1-methyl-1H-pyrazol-3-yl)pyrrolo[2,1-f][1,2,4]triazin-4-amine]
IC50 [1]: < 150 nM
inhibition (IL6): 1 to 24%
% inh of Akt phosphorylation in Panc-1 (Akt phosphorylation): D* (85-100% activation)

COc1ccnc(Nc2nc(-c3nccn3C)nn3cc(-c4c(F)cccc4OC)c(-c4ccccc4)c23)c1 [Compound 217, 6-(2-Fluoro-6-methoxyphenyl)-N-(4-methoxypyridin-2-yl)-2-(1-methyl-1H-imidazol-2-yl)-5-phenylpyrrolo[2,1-f][1,2,4]triazin-4-amine]
IC50 [1]: < 150 nM
inhibition (IL6): 75 to 100%
% inh of Akt phosphorylation in Panc-1 (Akt phosphorylation): D* (85-100% activation)

COc1cccc(-c2cn3nc(-c4nccn4C)nc(N[C@H]4C[C@H](OC)C4)c3c2-c2ccccc2)c1C [Compound 209, 6-(3-methoxy-2-methylphenyl)-N-((1r,3r)-3-methoxycyclobutyl)-2-(1-methyl-1H-imidazol-2-yl)-5-phenylpyrrolo[2,1-f][1,2,4]triazin-4-amine]
IC50 [1]: 150 to 500 nM
inhibition (IL6): 75 to 100%
% inh of Akt phosphorylation in Panc-1 (Akt phosphorylation): D (85-100% inhibition)

COCC1CCN(c2nc(-c3ccccn3)nn3cc(-c4ccn(C(C)C)n4)c(C)c23)C1 (racemic) [Compound 10, rac 6-(1-Isopropyl-1H-pyrazol-3-yl)-4-(3-(methoxymethyl)pyrrolidin-1-yl)-5-methyl-2-(pyridin-2-yl)pyrrolo[2,1-f][1,2,4]triazine]
IC50 [1]: > 1000 nM
inhibition (IL6): 25 to 49%
% inh of Akt phosphorylation in Panc-1 (Akt phosphorylation): 0 (0% inhibition)

CCOc1ccc(Nc2nc(-c3nccn3C)nn3cc(-c4ccn(C)n4)c(C)c23)nc1 [Compound 229, N-(5-Ethoxypyridin-2-yl)-5-methyl-2-(1-methyl-1H-imidazol-2-yl)-6-(1-methyl-1H-pyrazol-3-yl)pyrrolo[2,1-f][1,2,4]triazin-4-amine]
IC50 [1]: 150 to 500 nM
inhibition (IL6): 26 to 49%
% inh of Akt phosphorylation in Panc-1 (Akt phosphorylation): D* (85-100% activation)

COc1cnc(Nc2nc(-c3nccn3C)nn3cc(-c4ccn(C)n4)c(C)c23)cc1C [Compound 236, N-(5-Methoxy-4-methylpyridin-2-yl)-5-methyl-2-(1-methyl-1H-imidazol-2-yl)-6-(1-methyl-1H-pyrazol-3-yl)pyrrolo[2,1-f][1,2,4]triazin-4-amine]
IC50 [1]: 150 to 500 nM
inhibition (IL6): 0%
% inh of Akt phosphorylation in Panc-1 (Akt phosphorylation): B* (26-49% activation)

COc1ccnc(N(C)c2nc(-c3nccn3C)nn3cc(-c4ccn(C)n4)c(C)c23)c1 [Compound 223, N-(4-Methoxypyridin-2-yl)-N,5-dimethyl-2-(1-methyl-1H-imidazol-2-yl)-6-(1-methyl-1H-pyrazol-3-yl)pyrrolo[2,1-f][1,2,4]triazin-4-amine]
IC50 [1]: > 1000 nM
inhibition (IL6): 0%
% inh of Akt phosphorylation in Panc-1 (Akt phosphorylation): B (26-49% inhibition)

COC1CCCN(c2nc(-c3ccccn3)nn3cc(-c4ccn(C(C)C)n4)c(C)c23)C1 (racemic) [Compound 12, rac 6-(1-Isopropyl-1H-pyrazol-3-yl)-4-(3-methoxypiperidin-1-yl)-5-methyl-2-(pyridin-2-yl)pyrrolo[2,1-f][1,2,4]triazine]
IC50 [1]: > 1000 nM
inhibition (IL6): 25 to 49%
% inh of Akt phosphorylation in Panc-1 (Akt phosphorylation): 0 (0% inhibition)

Cc1c(-c2ccn(C)n2)cn2nc(-c3nccn3C)nc(Nc3ccc(C(F)F)cn3)c12 [Compound 234, N-(5-(Difluoromethyl)pyridin-2-yl)-5-methyl-2-(1-methyl-1H-imidazol-2-yl)-6-(1-methyl-1H-pyrazol-3-yl)pyrrolo[2,1-f][1,2,4]triazin-4-amine]
IC50 [1]: < 150 nM
inhibition (IL6): 1 to 24%
% inh of Akt phosphorylation in Panc-1 (Akt phosphorylation): D* (85-100% activation)

Cc1c(-c2ccn(C)n2)cn2nc(-c3nccn3C)nc(Nc3ccc(-n4ccnc4C)cn3)c12 [Compound 243, 5-Methyl-N-(5-(2-methyl-1H-imidazol-1-yl)pyridin-2-yl)-2-(1-methyl-1H-imidazol-2-yl)-6-(1-methyl-1H-pyrazol-3-yl)pyrrolo[2,1-f][1,2,4]triazin-4-amine]
IC50 [1]: < 150 nM
inhibition (IL6): 0%
% inh of Akt phosphorylation in Panc-1 (Akt phosphorylation): D* (85-100% activation)

CO[C@@H]1C[C@H]1Nc1nc(-c2nccn2C)nn2cc(-c3cccnc3)c(-c3ccccc3)c12 (racemic) [Compound 190, N-((1R,2R)-2-Methoxycyclopropyl)-2-(1-methyl-1H-imidazol-2-yl)-5-phenyl-6-(pyridin-3-yl)pyrrolo[2,1-f][1,2,4]triazin-4-amine]
IC50 [1]: > 1000 nM
inhibition (IL6): 50 to 74%
% inh of Akt phosphorylation in Panc-1 (Akt phosphorylation): D* (85-100% activation)

COc1ccnc(Nc2nc(-c3nccn3C)nn3cc(-c4ccn(CCNC(=O)CCCC[C@H]5SC[C@H]6NC(=O)N[C@H]65)n4)c(C)c23)c1 [Compound 215, N-(2-(3-(4-((4-methoxypyridin-2-yl)amino)-5-methyl-2-(1-methyl-1H-imidazol-2-yl)pyrrolo[2,1-f][1,2,4]triazin-6-yl)-1H-pyrazol-1-yl)ethyl)-5-((3aR,4R,6aS)-2-oxohexahydro-1H-thieno[3,4-d]imidazol-4-yl)pentanamide]
IC50 [1]: > 1000 nM
inhibition (IL6): 1 to 24%
% inh of Akt phosphorylation in Panc-1 (Akt phosphorylation): B* (26-49% activation)

Cn1ccnc1-c1nc(NS(C)(=O)=O)c2c(-c3ccccc3)c(-c3ccccc3)cn2n1 [Compound 212, N-(2-(1-Methyl-1H-imidazol-2-yl)-5,6-diphenylpyrrolo[2,1-f][1,2,4]triazin-4-yl) methanesulfonamide]
IC50 [1]: > 1000 nM
inhibition (IL6): 1 to 24%
% inh of Akt phosphorylation in Panc-1 (Akt phosphorylation): A* (1-25% activation)

CO[C@@H]1C[C@H]1Nc1nc(-c2nccn2C)nn2cc(-c3ccncc3)c(-c3ccccc3)c12 (racemic) [Compound 197, rac N-((1R,2R)-2-methoxycyclopropyl)-2-(1-methyl-1H-imidazol-2-yl)-5-phenyl-6-(pyridin-4-yl)pyrrolo[2,1-f][1,2,4]triazin-4-amine]
IC50 [1]: > 1000 nM
inhibition (IL6): 50 to 74%
% inh of Akt phosphorylation in Panc-1 (Akt phosphorylation): A* (1-25% activation)

CO[C@H]1C[C@H](Nc2nc(-c3nccn3C)nn3cc(-c4cccnc4)c(-c4cccnc4)c23)C1 [Compound 171, N-((1r,3r)-3-Methoxycyclobutyl)-2-(1-methyl-1H-imidazol-2-yl)-5,6-di(pyridin-3-yl)pyrrolo[2,1-f][1,2,4]triazin-4-amine]
IC50 [1]: > 1000 nM
inhibition (IL6): 0%
% inh of Akt phosphorylation in Panc-1 (Akt phosphorylation): B (26-49% inhibition)

Cc1c(-c2ccn(C)n2)cn2nc(-c3nccn3C)nc(Nc3ccc(-n4ccnc4)cn3)c12 [Compound 242, N-(5-(1H-Imidazol-1-yl)pyridin-2-yl)-5-methyl-2-(1-methyl-1H-imidazol-2-yl)-6-(1-methyl-1H-pyrazol-3-yl)pyrrolo[2,1-f][1,2,4]triazin-4-amine]
IC50 [1]: > 1000 nM
inhibition (IL6): 25 to 49%
% inh of Akt phosphorylation in Panc-1 (Akt phosphorylation): D* (85-100% activation)

COc1cc(Nc2nc(-c3nccn3C)nn3cc(-c4cccnc4)c(-c4cccnc4)c23)ncn1 [Compound 170, N-(6-Methoxypyrimidin-4-yl)-2-(1-methyl-1H-imidazol-2-yl)-5,6-di(pyridin-3-yl)pyrrolo[2,1-f][1,2,4]triazin-4-amine]
IC50 [1]: < 150 nM
inhibition (IL6): 50 to 74%
% inh of Akt phosphorylation in Panc-1 (Akt phosphorylation): C* (46-84% activation)
